Target: T1, Dopamine beta hydroxylase (Homo sapiens, UniProt P09172)
T1 construct: 125 μl of plasma; tissue Instituto Português do Sangue Transplantação; host or cells: human plasma from healthy donors
T1 sequence (P09172 40-617 limits assumed): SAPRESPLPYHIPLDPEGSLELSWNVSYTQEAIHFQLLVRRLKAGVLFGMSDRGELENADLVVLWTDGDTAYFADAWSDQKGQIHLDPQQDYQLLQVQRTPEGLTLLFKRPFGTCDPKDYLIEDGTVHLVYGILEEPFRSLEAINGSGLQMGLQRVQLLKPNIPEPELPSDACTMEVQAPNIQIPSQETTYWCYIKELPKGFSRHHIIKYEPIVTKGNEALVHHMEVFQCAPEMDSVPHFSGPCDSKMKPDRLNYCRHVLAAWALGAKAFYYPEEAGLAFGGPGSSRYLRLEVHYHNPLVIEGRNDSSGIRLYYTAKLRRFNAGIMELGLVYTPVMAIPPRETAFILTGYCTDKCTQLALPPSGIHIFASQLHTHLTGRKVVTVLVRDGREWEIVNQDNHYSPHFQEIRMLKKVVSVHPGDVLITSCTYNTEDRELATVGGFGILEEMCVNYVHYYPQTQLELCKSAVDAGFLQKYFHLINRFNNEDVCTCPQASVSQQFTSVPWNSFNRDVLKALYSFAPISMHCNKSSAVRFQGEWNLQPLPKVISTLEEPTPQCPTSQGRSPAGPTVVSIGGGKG
Assay: Dopamine beta hydroxylase activity in human plasma
Format: biochemical
Conditions: for Plasma (0.01 μM), activity in % of control: inhibitor 0.01 μM; for Plasma (0.1 μM), activity in % of control: inhibitor 0.1 μM; for Plasma (1 μM), activity in % of control: inhibitor 1 μM
Procedure, shortened: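 Healthy-donor human plasma pre-incubated 10 min at 37° C with compound at final 10, 100 or 1000 nM in pH 5.0 acetate buffer with ascorbate, fumarate, pargyline, N-ethylmaleimide, catalase and copper sulfate. Tyramine substrate then added for 45 min; octopamine formed was isolated by SCX cartridge, periodate-converted and read at 330 nm; activity given as % control.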

| SMILES | Plasma (0.01 μM), activity in % of control | Plasma (0.1 μM), activity in % of control | Plasma (1 μM), activity in % of control |
| --- | --- | --- | --- |
| Fc1ccc(Br)c(F)c1[C@H]1Cc2c(CCN[C@@H]3CCOC3)[nH]c(=S)n2C1 [Example 176, (R)-6-(3-bromo-2,6-difluorophenyl)-1-(2-(((R)-tetrahydrofuran-3-yl)amino)ethyl)-2,5,6,7-tetrahydro-3H-pyrrolo[1,2-c]imidazole-3-thione] | 95.3 % of control | 74.9 % of control | – |
| Cn1c(CCC(=O)Nc2ccccn2)c2n(c1=S)C[C@@H](c1c(F)cccc1F)C2 [Example 269, (R)-3-(6-(2,6-difluorophenyl)-2-methyl-3-thioxo-2,5,6,7-tetrahydro-3H-pyrrolo[1,2-c]imidazol-1-yl)-N-(pyridin-2-yl)propanamide] | 105.6 % of control | 83.7 % of control | – |
| O=C(CCc1[nH]c(=S)n2c1C[C@H](c1c(F)c(F)cc(F)c1F)C2)N1CCC(F)(F)CC1 [Example 206, (R)-1-(4,4-difluoropiperidin-1-yl)-3-(6-(2,3,5,6-tetrafluorophenyl)-3-thioxo-2,5,6,7-tetrahydro-3H-pyrrolo[1,2-c]imidazol-1-yl)propan-1-one] | 22.4 % of control | 8.7 % of control | – |
| CN1CCN(C(=O)Cc2[nH]c(=S)n3c2C[C@@H](c2c(F)ccc(Br)c2F)C3)CC1 [Example 91, (S)-2-(6-(3-bromo-2,6-difluorophenyl)-3-thioxo-2,5,6,7-tetrahydro-3H-pyrrolo[1,2-c]imidazol-1-yl)-1-(4-methylpiperazin-1-yl)ethan-1-one] | – | 19.0 % of control | 0 % of control |
| COCCNC(=O)Cc1[nH]c(=S)n2c1C[C@H](c1c(F)c(F)cc(F)c1F)C2 [Example 73, (R)—N-(2-methoxyethyl)-2-(6-(2,3,5,6-tetrafluorophenyl)-3-thioxo-2,5,6,7-tetrahydro-3H-pyrrolo[1,2-c]imidazol-1-yl)acetamide] | – | 75.9 % of control | 19.1 % of control |
| Cl.Fc1ccc(Cl)c(F)c1[C@@H]1Cc2c(CCc3cccnc3)[nH]c(=S)n2C1 [Example 215, (S)-6-(3-chloro-2,6-difluorophenyl)-1-(2-(pyridin-3-yl)ethyl)-2,5,6,7-tetrahydro-3H-pyrrolo[1,2-c]imidazole-3-thione Hydrochloride] | 74.3 % of control | 34.2 % of control | – |
| O=C(Cc1[nH]c(=S)n2c1[C@@H]1C[C@]1(c1cc(Br)ccc1F)C2)NC1CCOC1 (stereo partly drawn) [Example 148, 2-((5aS,6aR)-5a-(5-bromo-2-fluorophenyl)-3-thioxo-2,3,5,5a,6,6a-hexahydrocyclopropa[3,4]pyrrolo[1,2-c]imidazol-1-yl)-N-(tetrahydrofuran-3-yl)acetamide] | – | 17.1 % of control | 0.9 % of control |
| Cn1c(CC(=O)NC2CCOCC2)c2n(c1=S)C[C@H](c1c(F)ccc(Br)c1F)C2 [Example 406, (S)-2-(6-(3-bromo-2,6-difluorophenyl)-2-methyl-3-thioxo-2,5,6,7-tetrahydro-3H-pyrrolo[1,2-c]imidazol-1-yl)-N-(tetrahydro-2H-pyran-4-yl)acetamide] | 28.9 % of control | 2.8 % of control | – |
| Cl.O=C(Cc1[nH]c(=S)n2c1C[C@@H](c1c(F)ccc(Cl)c1F)C2)NCCN1CCC(F)(F)CC1 [Example 115, (S)-2-(6-(3-chloro-2,6-difluorophenyl)-3-thioxo-2,5,6,7-tetrahydro-3H-pyrrolo[1,2-c]imidazol-1-yl)-N-(2-(4,4-difluoropiperidin-1-yl)ethyl)acetamide Hydrochloride] | 48.0 % of control | 0 % of control | – |
| Cn1c(CC(=O)NC2CCOCC2)c2n(c1=S)C[C@@H](c1c(F)cccc1F)C2 [Example 447, (R)-2-(6-(2,6-difluorophenyl)-2-methyl-3-thioxo-2,5,6,7-tetrahydro-3H-pyrrolo[1,2-c]imidazol-1-yl)-N-(tetrahydro-2H-pyran-4-yl)acetamide] | 94.4 % of control | 33.2 % of control | – |
| Cn1c(CC(=O)NCC2CCCO2)c2n(c1=S)C[C@@H](c1c(F)c(F)cc(F)c1F)C2 (stereo in doubt) [Example 391, 2-((R)-2-methyl-6-(2,3,5,6-tetrafluorophenyl)-3-thioxo-2,5,6,7-tetrahydro-3H-pyrrolo[1,2-c]imidazol-1-yl)-N—(((R)-tetrahydrofuran-2-yl)methyl)acetamide] | 83.8 % of control | 40.7 % of control | – |
| Cn1c(CCC(N)=O)c2n(c1=S)C[C@@H](c1c(F)cccc1F)C2 [Example 263, (R)-3-(6-(2,6-difluorophenyl)-2-methyl-3-thioxo-2,5,6,7-tetrahydro-3H-pyrrolo[1,2-c]imidazol-1-yl)propanamide] | 103.3 % of control | 87.1 % of control | – |
| CN(C(=O)Cc1c2n(c(=S)n1C)C[C@H](c1c(F)ccc(Cl)c1F)C2)C1COC1 [Example 429, (S)-2-(6-(3-chloro-2,6-difluorophenyl)-2-methyl-3-thioxo-2,5,6,7-tetrahydro-3H-pyrrolo[1,2-c]imidazol-1-yl)-N-methyl-N-(oxetan-3-yl)acetamide] | 37.8 % of control | 5.8 % of control | – |
| Cl.Cn1c(CCNC2CCCC2)c2n(c1=S)C[C@@]1(c3cc(Cl)ccc3F)C[C@@H]21 [Example 322, (5aS,6aR)-5a-(5-chloro-2-fluorophenyl)-1-(2-(cyclopentylamino)ethyl)-2-methyl-5,5a,6,6a-tetrahydrocyclopropa[3,4]pyrrolo[1,2-c]imidazole-3(2H)-thione Hydrochloride] | 62.3 % of control | 43.4 % of control | – |
| O=C(Cc1[nH]c(=S)n2c1C[C@@H](c1c(F)ccc(Cl)c1F)C2)NCC(F)(F)F [Example 113, (S)-2-(6-(3-chloro-2,6-difluorophenyl)-3-thioxo-2,5,6,7-tetrahydro-3H-pyrrolo[1,2-c]imidazol-1-yl)-N-(2,2,2-trifluoroethyl)acetamide] | 85.1 % of control | 25.6 % of control | – |
| Cn1c(CC(=O)N[C@H]2CCOC2)c2n(c1=S)C[C@@]1(c3cc(Cl)ccc3F)C[C@@H]21 [Example 306, 2-((5aS,6aR)-5a-(5-chloro-2-fluorophenyl)-2-methyl-3-thioxo-2,3,5,5a,6,6a-hexahydrocyclopropa[3,4]pyrrolo[1,2-c]imidazol-1-yl)-N—((S)-tetrahydrofuran-3-yl)acetamide] | 70.6 % of control | 18.0 % of control | – |
| CN(C(=O)Cc1c2n(c(=S)n1C)C[C@H](c1c(F)ccc(Cl)c1F)C2)C1CCOCC1 [Example 373, (S)-2-(6-(3-chloro-2,6-difluorophenyl)-2-methyl-3-thioxo-2,5,6,7-tetrahydro-3H-pyrrolo[1,2-c]imidazol-1-yl)-N-methyl-N-(tetrahydro-2H-pyran-4-yl)acetamide] | 66.1 % of control | 12.8 % of control | – |
| O=C(Cc1[nH]c(=S)n2c1[C@@H]1C[C@]1(c1c(F)ccc(Cl)c1F)C2)N[C@@H]1CCOC1 [Example 392, 2-((5aS,6aR)-5a-(3-chloro-2,6-difluorophenyl)-3-thioxo-2,3,5,5a,6,6a-hexahydrocyclopropa[3,4]pyrrolo[1,2-c]imidazol-1-yl)-N—((R)-tetrahydrofuran-3-yl)acetamide] | 62.3 % of control | 13.2 % of control | – |
| O=C(Cc1[nH]c(=S)n2c1C[C@H](c1c(F)c(F)cc(F)c1F)C2)N[C@@H]1CCCOC1 [Example 386, N—((R)-tetrahydro-2H-pyran-3-yl)-2-((R)-3-thioxo-6-(2,3,5,6-tetrafluorophenyl)-2,5,6,7-tetrahydro-3H-pyrrolo[1,2-c]imidazol-1-yl)acetamide] | 101.8 % of control | 79.4 % of control | – |
| Cn1c(CC(N)=O)c2n(c1=S)C[C@H](c1c(F)ccc(Br)c1F)C2 [Example 240, (S)-2-(6-(3-bromo-2,6-difluorophenyl)-2-methyl-3-thioxo-2,5,6,7-tetrahydro-3H-pyrrolo[1,2-c]imidazol-1-yl)acetamide] | 76.1 % of control | 39.2 % of control | – |
| Cn1c(CC(N)=O)c2n(c1=S)C[C@@]1(c3cc(Br)ccc3F)C[C@@H]21 [Example 280, 2-((5aS,6aR)-5a-(5-bromo-2-fluorophenyl)-2-methyl-3-thioxo-2,3,5,5a,6,6a-hexahydrocyclopropa[3,4]pyrrolo[1,2-c]imidazol-1-yl)acetamide] | 92.8 % of control | 51.4 % of control | – |

— patent US11434242B2, “Dopamine-b-hydroxylase inhibitors” (BIAL-PORTELA & Cª, S.A., priority 2017, dated 2022)
